Patent US20250188083A1, “Modulators of Histone Acetyltransferase 1 and Methods of Treatment Thereof” (The Board of Trustees of the Leland Stanford Junior …, priority 2021, published 2025)
“And” between values parts separate entries of the source, which are not always exact repeats. Equal entries are not always repeated. Values belong to the molecule of their own block, whether it stands above or below them.

Experiments:
[1] = target: HAT1/Rbap46 enzyme complex (Homo sapiens, UniProt O14929); assay: HAT1 acetylation (acetyl-click) assay with 4-pentynoyl-CoA; type: biochemical; conditions: for HAT1 inhibitory activity of flavonoids in dose-response: dose-response curves, FIG. 13; for HAT1 inhibitory activity in library screens (rank, active or inactive): single-dose screening; for IC50: dose-response, 4-pentynoyl-CoA co-factor, read-out: IC50 for HAT1 enzymatic inhibition; for inhibition of HAT1/Rbap46 by bi-substrate inhibitors: 10 μM
Procedure: FIG. 6 provides a schematic of a histone acetyltransferase 1 (HAT1) acetylation assay in accordance with various embodiments. HAT1/Rbap46 purified enzyme complex is incubated with 4-pentynoyl-CoA and histone H4 N-terminal biotinylated peptide in the presence or absence of test compounds. Then reaction products are bound to neutravidin 96-well plate, washed, functionalized by copper(I)-catalyzed cycloaddition click chemistry with biotin-azide. Then, streptavidin-HRP is bound and detected by amplex red fluorescence reaction.
Percent inhibition was calculated according the following formula: […]

A549 tumors = assay: A549 tumor growth in NSG mice
Procedure: P-value calculated by least squares regression and extra sum-of-squares F-test. N=5 mice per group.
A549 cells were infected with 3 lentiviral shRNAs targeting the human HAT1 mRNA (Origene #TL312517). Six-to-eight-week-old NSG female mice (Jackson Labs #005557) were shaved, then 500,000 A549 tumor cells were injected into bilateral flanks and tumor growth was assessed by tri-dimensional tumor measurements to yield tumor volumes. For drug treatments, analog 2016 was resuspended in a 1:1 mixture of PEG-400 and PBS+1% dialyzed BSA-0.2 μm-filtered (MilliporeSigma #12-660-910GM). Intraperitoneal injections (200 μL) were performed with a 21-G needle. Tumor measurements were performed with digital calipers.

[2] = Fluorescence imaging of harvested organs (compound distribution); type: in vivo, mice; conditions: 24 hours
Text: Organs were harvested and excited with UV light (230 nm) and imaged with a yellow-green filter.

HCC1806 cell line = assay: Cell growth inhibition (CellTiter-Blue / resazurin); type: cell-based, human
Procedure: (§1) hTert-HME1, HCC1806, HCC1937, A549 were maintained in a humified incubator at 37deg C. with 5% CO2. HCC1806 and HCC1937 were grown in RPMI with 10% FBS and 1% penicillin-streptomycin. A549 was grown in F-12 media with 10% FBS and 1% penicillin-streptomycin. hTert-HME1 was grown in Mammary Epithelial Growth Media (PromoCell). Drug treatments were performed in 96-well plates. Cells were seeded at 5000 cells per well, then allowed to attach overnight. Drug dilutions were made in 96-well plates then transferred to plate containing cells and incubated for 48-72 hours. Cell density was then determined by CellTiter-Blue (Promega). For capillary immunoassays hTert-HME1 5E5 cells were seeded in 10 cm plates and cultured for 48 hours, then cells were washed 2× in PBS and EGF-free MEGM was added overnight. The next day, cells were treated in EGF-free media with 1% dialyzed BSA+drug for 30 minutes, then EGF was added to the plate and cells were cultured for 8, 10 and 12 hours before harvesting. Microcapillary immunoassays were performed on a SimpleWestern Wes instrument using H4K12-Ac antibody (Abcam ab46983) at 1:25 dilution, H4K5-Ac antibody (Millipore 07-327) at 1:50 dilution, HAT1 (Abcam ab194296) at 1:50 dilution, nascent H4 (Abcam ab7311) at 1:10 dilution, nascent H3 (Abcam ab18521) at 1:50 dilution, actin (Thermo-Fisher MA5-15452) at 1:100 dilution.

[3] = mouse, in vivo, ip
CBP = target: T1, CBP (Homo sapiens, UniProt Q92793); assay: Other acetyltransferase assay (3H-Acetyl-CoA, Creative Biomart); type: biochemical; conditions: 10-point dose curve from 100 μM
T1 construct: Creative Biomart (assay service)
Procedure: (§2) Acetylation assays on 7 targets (CBP, GCN5, KAT5, MYST2/KAT7, MYST4/KAT6b, p300, pCAF) was performed by Creative Biomart. […] Reaction buffer was 50 mM Tris-HCL, 0.1 mM EDTA, 250 mM NaCl, 1 mM DTT, 1% DMSO, pH 8.0, using 3 μM 3H-Acetyl-CoA, reaction time of 1 hour at 30 degrees Celsius, with substrate conversion rate between 5-20%. Enzymes were diluted in reaction buffer, followed by addition of compound with Acoustic Technology in nanoliter range, incubated at room temperature for 20 minutes, then 3H-Acetyl-CoA was added. Reaction was incubated at 30 minutes at 30 degrees Celsius, then transferred to filter paper for detection.

PCAF = target: T2, PCAF (Homo sapiens, UniProt Q92831); assay: as above; type: biochemical; conditions: 10-point dose curve from 100 μM
T2 construct: Creative Biomart (assay service)
Procedure: as §2

MYST2/KAT7 = target: T3, MYST2/KAT7 (Homo sapiens, UniProt O95251); assay: as above; type: biochemical; conditions: 10-point dose curve from 100 μM
T3 construct: Creative Biomart (assay service)
Procedure: as §2

MYST4/KAT6b = target: T4, MYST4/KAT6b (Homo sapiens, UniProt Q8WYB5); assay: as above; type: biochemical; conditions: 10-point dose curve from 100 μM
T4 construct: Creative Biomart (assay service)
Procedure: as §2

GCN5 = target: T5, GCN5 (Homo sapiens, UniProt Q92830); assay: as above; type: biochemical; conditions: 10-point dose curve from 100 μM
T5 construct: Creative Biomart (assay service)
Procedure: as §2

p300 = target: T6, p300 (Homo sapiens, UniProt Q09472); assay: as above; type: biochemical; conditions: 10-point dose curve from 100 μM
T6 construct: Creative Biomart (assay service)
Procedure: as §2

KAT5 = target: T7, KAT5 (Homo sapiens, UniProt Q92993); assay: as above; type: biochemical; conditions: 10-point dose curve from 100 μM
T7 construct: Creative Biomart (assay service)
Procedure: as §2

HCC1937 cell line = assay: Cell growth inhibition (CellTiter-Blue / resazurin); type: cell-based; conditions: Homo sapiens
Procedure: as §1

A549 cell line = assay: as above; type: cell-based; conditions: Homo sapiens
Procedure: as §1

[4] = test system: H4 lysine 5 and 12 acetylation; assay: Capillary immunoassay of H4 acetylation in hTert-HME1 cells; type: cell-based, human
Procedure: At some timepoints, decreased H4 protein levels were also observed, consistent with prior studies of the effects of HAT1 depletion (J. J. Gruber, et al., Mol Cell 75:711-724 e5, 2019, cited supra).
as §1, with “Microcapillary immunoassays were performed on a SimpleWestern Wes instrument using H4K12-Ac antibody (Abcam ab46983) at 1:25 dilution, H4K5-Ac antibody (Millipore 07-327) at 1:50 dilution, HAT1 (Abcam ab194296) at 1:50 dilution, nascent H4 (Abcam ab7311) at 1:10 dilution, nascent H3 (Abcam ab18521) at 1:50 dilution, actin (Thermo-Fisher MA5-15452) at 1:100 dilution.” left out

[5] = target: T8, bacterially-expressed recombinant HAT1 (Homo sapiens, UniProt O14929); conditions: Ngo, Brown, Zheng 2019; read-out: Ki towards recombinant HAT1; cited from earlier work
T8 sequence (O14929 1-419): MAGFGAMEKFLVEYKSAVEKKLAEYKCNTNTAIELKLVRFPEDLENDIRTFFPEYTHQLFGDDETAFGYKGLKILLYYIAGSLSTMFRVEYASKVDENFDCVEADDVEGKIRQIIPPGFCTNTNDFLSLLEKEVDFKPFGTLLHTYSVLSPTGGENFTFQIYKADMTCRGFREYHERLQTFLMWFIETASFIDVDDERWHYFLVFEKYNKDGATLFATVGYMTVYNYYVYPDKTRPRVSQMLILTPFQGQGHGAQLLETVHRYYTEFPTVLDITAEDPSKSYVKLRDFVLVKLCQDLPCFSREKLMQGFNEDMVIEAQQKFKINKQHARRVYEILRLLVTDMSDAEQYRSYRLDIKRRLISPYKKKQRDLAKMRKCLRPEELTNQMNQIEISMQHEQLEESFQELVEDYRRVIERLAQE

Sequence of HAT1/Rbap46 enzyme complex (Q16576 whole entry partner, one chain of several): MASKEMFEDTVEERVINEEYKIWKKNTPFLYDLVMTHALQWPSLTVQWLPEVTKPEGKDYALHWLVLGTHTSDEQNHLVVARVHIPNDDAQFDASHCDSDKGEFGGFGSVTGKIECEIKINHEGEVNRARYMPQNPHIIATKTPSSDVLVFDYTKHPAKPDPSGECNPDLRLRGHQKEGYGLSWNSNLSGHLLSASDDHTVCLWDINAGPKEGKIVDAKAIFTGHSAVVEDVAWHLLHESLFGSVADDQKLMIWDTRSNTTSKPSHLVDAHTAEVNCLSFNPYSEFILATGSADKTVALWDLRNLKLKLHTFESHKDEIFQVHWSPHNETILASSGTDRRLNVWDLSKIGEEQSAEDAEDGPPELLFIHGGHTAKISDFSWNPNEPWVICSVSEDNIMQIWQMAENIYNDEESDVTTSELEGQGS
T2 sequence (Q92831 whole entry): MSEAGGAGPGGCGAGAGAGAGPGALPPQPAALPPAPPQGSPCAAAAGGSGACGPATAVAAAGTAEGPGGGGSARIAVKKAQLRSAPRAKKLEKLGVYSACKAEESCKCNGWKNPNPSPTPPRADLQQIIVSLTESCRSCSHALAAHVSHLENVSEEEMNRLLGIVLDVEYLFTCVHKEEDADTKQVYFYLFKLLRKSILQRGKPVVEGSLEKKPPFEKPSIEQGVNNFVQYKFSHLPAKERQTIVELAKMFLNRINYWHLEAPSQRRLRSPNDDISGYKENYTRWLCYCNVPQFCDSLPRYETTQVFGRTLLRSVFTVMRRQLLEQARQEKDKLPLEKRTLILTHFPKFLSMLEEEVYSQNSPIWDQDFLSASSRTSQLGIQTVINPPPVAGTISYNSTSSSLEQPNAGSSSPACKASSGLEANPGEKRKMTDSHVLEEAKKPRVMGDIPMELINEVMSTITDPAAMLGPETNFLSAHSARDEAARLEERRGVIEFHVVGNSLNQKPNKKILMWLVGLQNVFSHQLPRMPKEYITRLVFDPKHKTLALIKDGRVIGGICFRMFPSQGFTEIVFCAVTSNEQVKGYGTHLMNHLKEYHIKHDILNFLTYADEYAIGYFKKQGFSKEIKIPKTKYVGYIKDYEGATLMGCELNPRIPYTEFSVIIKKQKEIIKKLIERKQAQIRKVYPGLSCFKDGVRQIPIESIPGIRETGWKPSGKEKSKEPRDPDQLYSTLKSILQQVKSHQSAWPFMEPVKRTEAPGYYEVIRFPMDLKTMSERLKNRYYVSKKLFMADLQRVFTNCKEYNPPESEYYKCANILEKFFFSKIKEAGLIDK
T5 sequence (Q92830 whole entry): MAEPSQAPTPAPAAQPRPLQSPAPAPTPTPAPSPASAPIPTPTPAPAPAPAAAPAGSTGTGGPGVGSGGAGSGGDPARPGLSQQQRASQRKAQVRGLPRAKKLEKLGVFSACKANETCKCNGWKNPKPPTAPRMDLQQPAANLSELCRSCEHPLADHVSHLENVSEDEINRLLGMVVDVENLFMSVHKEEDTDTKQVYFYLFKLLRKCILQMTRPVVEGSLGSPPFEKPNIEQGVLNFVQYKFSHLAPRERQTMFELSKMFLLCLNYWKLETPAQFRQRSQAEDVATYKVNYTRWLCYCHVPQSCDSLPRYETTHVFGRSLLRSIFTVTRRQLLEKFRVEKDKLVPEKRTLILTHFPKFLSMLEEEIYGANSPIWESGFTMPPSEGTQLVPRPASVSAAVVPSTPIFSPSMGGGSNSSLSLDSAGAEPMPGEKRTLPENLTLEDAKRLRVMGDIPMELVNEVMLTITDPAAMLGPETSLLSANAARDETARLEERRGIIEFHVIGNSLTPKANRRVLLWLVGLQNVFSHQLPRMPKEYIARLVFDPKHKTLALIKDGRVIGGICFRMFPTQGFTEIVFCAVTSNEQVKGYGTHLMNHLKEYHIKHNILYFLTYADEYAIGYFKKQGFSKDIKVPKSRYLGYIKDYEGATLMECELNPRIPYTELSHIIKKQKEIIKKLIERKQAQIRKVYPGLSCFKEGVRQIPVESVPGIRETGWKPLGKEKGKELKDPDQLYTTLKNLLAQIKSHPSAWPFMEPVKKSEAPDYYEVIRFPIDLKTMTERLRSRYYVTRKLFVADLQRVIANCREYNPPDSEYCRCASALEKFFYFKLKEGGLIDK
T1 sequence (Q92793 whole entry): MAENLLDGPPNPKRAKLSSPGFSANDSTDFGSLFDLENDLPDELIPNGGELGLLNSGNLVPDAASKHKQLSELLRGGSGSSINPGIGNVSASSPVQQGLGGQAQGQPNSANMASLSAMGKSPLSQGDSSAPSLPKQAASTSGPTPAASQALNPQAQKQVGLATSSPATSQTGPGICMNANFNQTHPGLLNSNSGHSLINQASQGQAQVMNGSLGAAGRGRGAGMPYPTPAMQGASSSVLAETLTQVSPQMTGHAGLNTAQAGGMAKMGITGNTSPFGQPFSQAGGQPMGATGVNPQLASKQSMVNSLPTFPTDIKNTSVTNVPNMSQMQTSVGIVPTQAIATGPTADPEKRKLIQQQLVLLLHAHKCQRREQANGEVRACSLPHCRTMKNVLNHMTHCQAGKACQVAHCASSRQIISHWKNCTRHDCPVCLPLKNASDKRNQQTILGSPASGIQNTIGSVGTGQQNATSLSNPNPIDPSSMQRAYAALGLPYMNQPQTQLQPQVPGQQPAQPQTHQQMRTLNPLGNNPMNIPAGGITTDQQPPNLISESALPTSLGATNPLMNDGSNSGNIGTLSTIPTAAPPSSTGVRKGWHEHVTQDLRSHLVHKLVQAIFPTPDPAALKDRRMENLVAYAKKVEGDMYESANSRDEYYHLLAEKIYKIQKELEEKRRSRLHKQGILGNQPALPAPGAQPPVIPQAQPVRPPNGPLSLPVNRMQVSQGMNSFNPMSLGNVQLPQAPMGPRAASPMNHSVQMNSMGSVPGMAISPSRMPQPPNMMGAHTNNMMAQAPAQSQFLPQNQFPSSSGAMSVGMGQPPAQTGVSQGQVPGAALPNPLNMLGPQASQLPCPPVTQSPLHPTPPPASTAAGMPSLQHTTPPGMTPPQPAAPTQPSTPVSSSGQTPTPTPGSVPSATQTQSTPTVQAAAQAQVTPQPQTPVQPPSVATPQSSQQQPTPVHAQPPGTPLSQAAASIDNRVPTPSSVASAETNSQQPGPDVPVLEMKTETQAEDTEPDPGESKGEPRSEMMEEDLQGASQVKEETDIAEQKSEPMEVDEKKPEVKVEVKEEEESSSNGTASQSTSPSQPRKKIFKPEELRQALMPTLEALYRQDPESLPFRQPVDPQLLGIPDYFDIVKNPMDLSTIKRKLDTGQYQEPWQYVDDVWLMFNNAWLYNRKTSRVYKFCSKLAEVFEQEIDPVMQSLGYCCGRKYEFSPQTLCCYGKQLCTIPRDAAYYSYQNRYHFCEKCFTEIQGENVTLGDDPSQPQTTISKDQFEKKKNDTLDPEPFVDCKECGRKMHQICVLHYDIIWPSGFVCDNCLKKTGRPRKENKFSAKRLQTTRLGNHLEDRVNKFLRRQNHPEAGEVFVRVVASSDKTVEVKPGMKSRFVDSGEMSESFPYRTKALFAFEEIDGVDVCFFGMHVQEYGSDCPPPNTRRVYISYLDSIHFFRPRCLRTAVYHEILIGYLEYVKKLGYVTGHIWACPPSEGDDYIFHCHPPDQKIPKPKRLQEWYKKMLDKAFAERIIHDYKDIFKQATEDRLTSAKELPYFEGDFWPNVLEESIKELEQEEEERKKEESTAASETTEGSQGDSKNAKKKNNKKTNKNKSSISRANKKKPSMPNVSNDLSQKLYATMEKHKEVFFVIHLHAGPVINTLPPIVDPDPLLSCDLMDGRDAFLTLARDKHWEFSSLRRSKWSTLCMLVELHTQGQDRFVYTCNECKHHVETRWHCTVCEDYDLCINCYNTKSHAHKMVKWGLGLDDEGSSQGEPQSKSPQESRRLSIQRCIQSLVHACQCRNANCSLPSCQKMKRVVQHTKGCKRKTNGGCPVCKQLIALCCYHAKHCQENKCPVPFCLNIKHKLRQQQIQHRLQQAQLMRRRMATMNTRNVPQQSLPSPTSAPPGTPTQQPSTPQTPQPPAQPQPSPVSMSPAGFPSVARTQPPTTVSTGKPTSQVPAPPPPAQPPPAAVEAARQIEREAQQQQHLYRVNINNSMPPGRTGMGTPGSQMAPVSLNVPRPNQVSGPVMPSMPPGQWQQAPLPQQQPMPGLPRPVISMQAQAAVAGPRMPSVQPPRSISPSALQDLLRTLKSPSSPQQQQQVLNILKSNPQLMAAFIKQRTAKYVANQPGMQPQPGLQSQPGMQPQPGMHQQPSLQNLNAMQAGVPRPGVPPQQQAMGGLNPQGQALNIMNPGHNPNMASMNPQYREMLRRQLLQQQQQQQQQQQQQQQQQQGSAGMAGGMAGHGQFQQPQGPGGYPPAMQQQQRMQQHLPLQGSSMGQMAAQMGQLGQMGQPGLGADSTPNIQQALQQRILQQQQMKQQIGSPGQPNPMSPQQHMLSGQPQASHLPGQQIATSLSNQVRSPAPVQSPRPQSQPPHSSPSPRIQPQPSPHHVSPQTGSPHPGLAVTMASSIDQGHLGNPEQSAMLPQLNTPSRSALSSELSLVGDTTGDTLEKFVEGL
T7 sequence (Q92993 whole entry): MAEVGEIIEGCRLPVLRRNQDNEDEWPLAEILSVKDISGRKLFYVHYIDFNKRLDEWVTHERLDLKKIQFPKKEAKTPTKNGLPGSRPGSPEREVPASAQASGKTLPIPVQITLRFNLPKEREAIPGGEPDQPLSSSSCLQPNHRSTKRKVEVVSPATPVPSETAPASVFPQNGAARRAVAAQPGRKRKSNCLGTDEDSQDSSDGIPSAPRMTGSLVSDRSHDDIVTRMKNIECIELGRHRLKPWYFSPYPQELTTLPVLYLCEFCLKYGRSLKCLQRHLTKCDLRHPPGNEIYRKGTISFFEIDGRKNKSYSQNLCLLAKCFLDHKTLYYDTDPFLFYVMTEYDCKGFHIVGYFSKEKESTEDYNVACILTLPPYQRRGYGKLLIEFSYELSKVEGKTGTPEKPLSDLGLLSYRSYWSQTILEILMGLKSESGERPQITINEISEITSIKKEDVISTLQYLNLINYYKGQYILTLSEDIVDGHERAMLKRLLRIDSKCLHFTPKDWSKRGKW

HAT1 inhibitory activity in library screens (rank, active or inactive) [1]: top hit
Molecule: CC(=O)OCCn1c2nc(=O)[nH]c(=O)c-2nc2cc(C)c(C)cc21 [NSC-3064]

HAT1 inhibitory activity in library screens (rank, active or inactive) [1]: inhibitory activity
Molecule: COC1=C(N)C(=O)c2nc(-c3nc(C(=O)O)c(C)c(-c4ccc(OC)c(OC)c4O)c3N)ccc2C1=O [NSC-83950]

HAT1 inhibitory activity in library screens (rank, active or inactive) [1]: inhibitory activity
Molecule: O=C(O)Cc1ccc(N=Nc2c(O)c(C(=O)O)cc3ccccc23)cc1 [NSC-156563]

HAT1 inhibitory activity in library screens (rank, active or inactive) [1]: fifth best hit
Molecule: Cc1cc2cc3c(=O)[nH]c(=O)cc-3n(CC(O)C(O)C(O)CO)c2cc1C (stereo not drawn) [NSC-275266]

HAT1 inhibitory activity in library screens (rank, active or inactive) [1]: inhibitory activity
Molecule: Oc1ccccc1-c1nc2c3ccccc3c3ccccc3c2[nH]1 [NSC-332670]

Continued, molecule first:

Molecule: Cc1cc2nc3c(=O)[nH]c(=O)nc-3n(C[C@H](O)[C@H](O)[C@H](O)COP(=O)(O)OP(=O)(O)OC[C@H]3O[C@@H](n4cnc5c(N)ncnc54)[C@H](O)[C@@H]3O)c2cc1C [FAD, flavin-adenine-dinucleotide]
HAT1 inhibitory activity of flavonoids in dose-response [1]: no detectable inhibitory activity

Molecule: Cc1cc2nc3c(=O)[nH]c(=O)nc-3n(C[C@H](O)[C@H](O)[C@H](O)COP(=O)(O)O)c2cc1C [FMN, flavin-mononucleotide]
HAT1 inhibitory activity of flavonoids in dose-response [1]: no detectable inhibitory activity

Molecule: CCc1cc2c(cc1Cl)nc1c(=O)[nH]c(=O)nc-1n2CCOCC(C)C [JG-2016, 7-chloro-8-ethyl-10-(2-isobutoxyethyl)benzo[g]pteridine-2,4(3H, 10H)-dione]
tumor growth versus vehicle (A549 tumors; 50 mg/kg and 100 mg/kg i.p. once every three days from day 13): significantly impaired tumor growth
dose-response of tumor growth suppression (A549 tumors; higher dose (100 mg/kg) compared to lower dose (50 mg/kg)): more profound suppression of tumor growth
tissue accumulation by fluorescence imaging ([2]; healthy mice, 500 mg/kg i.p.): high accumulation adipose tissue
tissue accumulation by fluorescence imaging ([2]; mice bearing bilateral A549 tumors, 100 mg/kg once): compound accumulation in subcutaneous adipose tissues (SAT), visceral adipose tissue (VAT), and tumors
cell growth inhibition (HCC1806 cell line): among the most potent inhibitors of cell growth
EC50 (HCC1806 cell line; Homo sapiens): 10.4 µM
tolerated single intraperitoneal dose with minimal toxicity [3]: up to 250 mg/kg
toxicity signs ([3]; 500 mg/kg): signs of distress
IC50 (CBP): 90.4 µM
inhibitory activity towards PCAF (PCAF): minimal or undetectable inhibitory activity
IC50 (MYST2/KAT7): 84.8 µM
inhibitory activity towards MYST4/KAT6b (MYST4/KAT6b): minimal or undetectable inhibitory activity
inhibitory activity towards GCN5 (GCN5): minimal or undetectable inhibitory activity
IC50 (p300): 74.2 µM
inhibitory activity towards KAT5 (KAT5): minimal or undetectable inhibitory activity
EC50 (HCC1937 cell line): 29.8 µM
EC50 (A549 cell line): 1.9 µM
IC50 (A549 cell line; read-out: IC50 required to impair cell proliferation): 1.9 µM
time course of H4 acetylation inhibition ([4]; hTert-HME1, EGF stimulation 8, 10, 12 hours): on-target inhibition as early as 8 hours post-treatment that persisted through 12 hours
inhibition of H4 lysine 5 and 12 acetylation ([4]; hTert-HME1, dose series): dose-dependent inhibition

Molecule: CCc1cc2c(cc1Cl)nc1c(=O)[nH]c(=O)nc-1n2CCOCc1cccc(F)c1 [JG-2069]
HAT1 inhibitory activity in library screens (rank, active or inactive) [1]: interfered with enzyme inhibition

Molecule: CCc1cc2c(cc1Cl)nc1c(=O)[nH]c(=O)nc-1n2CCCOc1cccc(C#N)c1 [JG-2088]
HAT1 inhibitory activity in library screens (rank, active or inactive) [1]: interfered with enzyme inhibition

Molecule: CCc1cc2c(cc1Cl)nc1c(=O)[nH]c(=O)nc-1n2CCOCc1ccc(C#N)cc1 [JG-2092]
HAT1 inhibitory activity in library screens (rank, active or inactive) [1]: interfered with enzyme inhibition

Molecule: O=c1nc2n(C[C@H](O)[C@H](O)[C@H](O)CO)c3cc(Cl)c(Cl)cc3nc-2c(=O)[nH]1 [NSC-42186]
IC50 [1]: 60.5 µM and 38 µM
% inhibition of HAT1 activity ([1]; single dose 100 μM): 31%

Molecule: NC(=S)c1cn(C2OC(CO)C(O)C2O)c2ncnc(N)c12 (stereo not drawn) [NSC-105827]
HAT1 inhibitory activity in library screens (rank, active or inactive) [1]: inhibitory activity

Molecule: Cc1cc2nc3[nH]c(=O)[nH]c(=O)c3nc2cc1C [di-methyl-alloxazine]
HAT1 inhibitory activity of flavonoids in dose-response [1]: no detectable inhibitory activity

Molecule: CC(C)(COP(=O)(O)OP(=O)(O)OC[C@H]1O[C@@H](n2cnc3c(N)ncnc32)[C@H](O)[C@@H]1OP(=O)(O)O)[C@@H](O)C(=O)NCCC(=O)NCCSC(=O)[C@@H](N)CCCCN [lysyl-CoA]
inhibition of HAT1/Rbap46 by bi-substrate inhibitors [1]: no inhibitory activity

Molecule: CCCC(=O)OC[C@@H](OC(=O)CCC)[C@@H](OC(=O)CCC)[C@H](Cn1c2nc(=O)[nH]c(=O)c-2nc2cc(C)c(C)cc21)OC(=O)CCC [riboflavin tetrabutyrate]
IC50 [1]: 17 µM

Molecule: Cc1cc2nc3c(=O)[nH]c(=O)nc-3n(C[C@H](O)[C@H](O)[C@H](O)CO)c2cc1N(C)C [roseoflavin, reference compound]
HAT1 inhibitory activity in library screens (rank, active or inactive) [1]: inactive
cell growth inhibition (HCC1806 cell line): strong cell growth inhibitory properties

Molecule: H4K12-CoA: co-enzyme A chemically ligated to the ζ-amine of lysine 12 in the histone H4 N-terminal 20-mer peptide
inhibition of HAT1/Rbap46 by bi-substrate inhibitors [1]: robust inhibition
IC50 [1]: ~1 µM
cell growth inhibition (HCC1806 cell line): no inhibitory activity
Ki [5]: ~0.001 µM
